Reference: PubChem BioAssay (NCI)
Where “and” joins values, the source holds several entries; their conditions need not be identical. Identical values can stand only once.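 96-well plates; 48 h exposure; 5 concentrations. Endpoints by linear interpolation between flanking doses. Not reached: highest tested concentration assigned. GI50 is the concentration that inhibits growth by half. TGI marks complete inhibition of growth.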 Where a SMILES comes first, the peptide text is derived from it. The star is where a group is joined. Boc = CC(C)(C)OC(=O)*

Key:
Experiment in all cases: growth of human tumour cells (NCI), 48 h
HOP-92 NSCLC = system: HOP-92 NSCLC
MDA-MB-435 = system: MDA-MB-435
HCT-15 colon = system: HCT-15 colon
NCI-H460 lung = system: NCI-H460 lung
HS 578T breast = system: HS 578T breast
HCC-2998 colon = system: HCC-2998 colon
EKVX NSCLC = system: EKVX NSCLC
MALME-3M melanoma = system: MALME-3M melanoma
SF-268 CNS = system: SF-268 CNS
SNB-19 CNS = system: SNB-19 CNS
UO-31 renal = system: UO-31 renal

Row | Structure (SMILES) | TGI (HOP-92 NSCLC) [µM] | TGI (MDA-MB-435) [µM] | TGI (HCT-15 colon) [µM] | TGI (NCI-H460 lung) | TGI (HS 578T breast) | TGI (HCC-2998 colon) | TGI (EKVX NSCLC) | TGI (MALME-3M melanoma) [µM] | TGI (SF-268 CNS) | TGI (SNB-19 CNS) | TGI (UO-31 renal) | GI50 (HOP-92 NSCLC) [µM] | GI50 (MDA-MB-435) [µM] | GI50 (HCT-15 colon) [µM] | GI50 (HS 578T breast) [µM] | GI50 (SF-268 CNS) [µM] | GI50 (EKVX NSCLC) [µM] | GI50 (SNB-19 CNS) [µM] | GI50 (UO-31 renal) [µM]
1 | Nc1cc(CO)cc(Nc2c3ccccc3nc3occc23)c1 | > 100 | 41.9 | > 100 | 64.3 µM | 83.8 µM | > 100 µM | > 100 µM | > 100 | 87.3 µM | > 100 µM | > 100 µM | – | – | – | – | – | – | – | –
2 | COC(=O)/C=C1/OC(c2ccccc2)=C(Cl)C1=O | 42.7 | 39.5 | 25.4 | > 77.6 µM | 66.8 µM | 38.9 µM | 44.5 µM | 36 | 48.1 µM | > 66.9 µM | 49.2 µM | – | – | – | – | – | – | – | –
3 | O=C1CSC2(CCN(CCCN3c4ccccc4Sc4ccc(Cl)cc43)CC2)N1 | 20.3 | 23.5 | 20.8 | 15.2 µM | 51.9 µM | 14.4 µM | 22.7 µM | 24.4 | 26.6 µM | 26 µM | 19.5 µM | – | – | – | – | – | – | – | –
4 | COc1cccc(/C=C/C2=NN(c3cccc(S(=O)(=O)O)c3)C3(C2)SCC(=O)N3c2nc3ccccc3s2)c1 (stereo not drawn) | > 100 | 66.6 | > 100 | > 100 µM | > 100 µM | > 100 µM | > 100 µM | > 100 | > 100 µM | > 100 µM | > 100 µM | – | – | – | – | – | – | – | –
5 | CN(C)c1ccc(C(c2ccc(N(C)C)cc2)c2ccc([N+](=O)[O-])cc2)cc1 | > 100 | > 100 | > 100 | > 100 µM | > 100 µM | > 100 µM | > 100 µM | > 100 | > 100 µM | > 100 µM | > 100 µM | – | – | – | – | – | – | – | –
6 | NS(=O)(=O)c1ccc(/C=C/c2cccc(O)c2)cc1 | 65.9 | > 100 | > 100 | > 100 µM | > 100 µM | > 100 µM | > 100 µM | > 100 | > 100 µM | > 100 µM | 64.2 µM | 17.4 | 25.8 | 22.8 | 61 | 65.6 | – | – | –
7 | NC1CCC(c2cc3ccccc3s2)(N2CCCCC2)CC1 (stereo not drawn) | 5.15 | 2.63 | 3.76 | 3.06 µM | 20.5 µM | 2.21 µM | 11.9 µM | 7.79 | 15.8 µM | 26.8 µM | 5.94 µM | – | – | – | – | – | – | – | –
8 | CC1=C(C#N)S(=O)(=O)c2c(oc(C)c2C)N1 | > 100 | > 100 | > 100 | > 100 µM | > 100 µM | > 100 µM | > 100 µM | > 100 | > 100 µM | > 100 µM | > 100 µM | – | – | – | – | – | – | – | –
9 | COc1ccc2c(c1)CC[C@@H]1[C@@H]2CC[C@]2(C)/C(=N/OCCN3CCCCC3)CC[C@@H]12 | 14.4 | 16.9 | 6.23 | 5.68 µM | 26.6 µM | 8.26 µM | 21.5 µM | 4.89 | 24.7 µM | 21 µM | 10.7 µM | – | – | – | – | – | – | – | –
10 | CC(=O)Oc1ccc2c(c1)CC[C@@H]1C2[C@@H](O[N+](=O)[O-])C[C@@]2(C)C1CC[C@@H]2O (stereo partly drawn) | > 100 | 56.2 | > 100 | > 89.1 µM | 51.1 µM | 46.2 µM | 93.6 µM | > 100 | > 83 µM | > 100 µM | > 100 µM | – | – | – | – | – | – | – | –
11 | OC1CN=C2c3ccccc3C(O)(c3ccc(Cl)cc3)N2C1 (stereo not drawn) | 94.6 | > 100 | – | > 100 µM | > 100 µM | 35.5 µM | > 100 µM | > 100 | > 100 µM | > 100 µM | > 100 µM | – | – | – | – | – | – | – | –
12 | CCCCCC(C)C[C@H]1CO[C@H](c2ccc[nH]2)N[C@H]1C(=O)OC (stereo partly drawn) | > 100 | > 100 | > 100 | > 100 µM | > 100 µM | > 100 µM | > 100 µM | > 100 | > 100 µM | > 100 µM | – | – | – | – | – | – | – | – | –
13 | O=[N+]([O-])C(=C(NCc1ccccc1)NCc1ccccc1)C(Cl)=C(Cl)Cl | > 100 | 46.7 | 62.8 | > 100 µM | > 100 µM | > 100 µM | > 100 µM | 55.7 | 69.4 µM | > 100 µM | > 100 µM | – | – | – | – | – | – | – | –
14 | Cn1c2ccccc2n2c3nc4ccccc4nc3c(C#N)c12 | > 100 | > 100 | > 100 | > 100 µM | > 100 µM | > 79.1 µM | > 100 µM | > 100 | > 100 µM | > 100 µM | > 100 µM | – | – | – | – | – | – | – | –
15 | CC1(C)N=C(N)N=C(N)N1c1cccc(CSc2ccccc2)c1 | > 100 | > 100 | > 100 | > 100 µM | 68 µM | > 100 µM | > 100 µM | > 100 | > 100 µM | > 100 µM | > 100 µM | – | – | – | – | – | – | – | –
16 | Cc1nc2ccccc2n1CCc1nc2ccccc2s1 | > 100 | > 100 | > 100 | > 100 µM | > 100 µM | > 100 µM | > 100 µM | > 100 | > 100 µM | > 100 µM | – | – | – | – | – | – | – | – | –
17 | Cc1cc2ccccc2c[n+]1CC(=O)CC([O-])(C(F)(F)F)C(F)(F)F | > 100 | > 100 | > 100 | > 100 µM | > 100 µM | > 100 µM | > 100 µM | > 100 | > 100 µM | > 100 µM | > 100 µM | – | – | – | – | – | – | – | –
18 | CN(C)CCOc1ccc(-c2c(Oc3ccc(Cl)cc3)c(=O)oc3ccccc23)cc1 | > 39.4 | > 31.2 | 22.8 | 27.4 µM | 24.8 µM | 12.3 µM | 37.6 µM | 25.3 | 29.5 µM | > 46 µM | > 28.9 µM | – | – | – | – | – | – | – | –
19 | CC1CC[C@]2(C(=O)O)CCC3(C)C(=C2[C@H]1C)C=CC1[C@@]2(C)CC[C@H](O)C(C)(C)C2CC[C@]13C (stereo partly drawn) | 43.9 | > 100 | > 100 | > 100 µM | > 100 µM | 73.8 µM | > 100 µM | 73.2 | > 100 µM | > 100 µM | – | – | – | – | – | – | – | – | –
20 | CC1=Nn2c(nc3sc4c(c3c2=O)CCCC4)SC1 | > 100 | > 100 | > 100 | > 100 µM | > 100 µM | > 100 µM | > 100 µM | > 100 | > 100 µM | > 100 µM | > 100 µM | – | – | – | – | – | – | – | –
21 | CC1=C(N2CC2)C(=O)c2nc3n(c2C1=O)CCC3O (stereo not drawn) | 5.72 | 0.0484 | 29.6 | 0.324 µM | 0.0585 µM | 0.328 µM | 1.13 µM | 0.33 | 0.629 µM | 0.97 µM | 4.18 µM | – | – | – | – | – | – | – | –
22 | COc1ccc(N=C/C=C/Nc2ccc(OC)cc2)cc1 | 29.6 | 24 | 14.9 | 28.1 µM | 38.8 µM | 22.1 µM | 30.6 µM | 23.9 | 21.3 µM | 10.4 µM | 10.8 µM | – | – | – | – | – | – | – | –
23 | COC(=O)C(Cc1ccccc1)NC(=O)CNC(=O)CSc1nnc(COc2ccc(Cl)cc2)n1-c1ccccc1 (stereo not drawn) | 35.3 | 35 | 36.4 | 32.2 µM | 70.4 µM | 24.7 µM | 39.9 µM | 34.5 | 33 µM | 31.4 µM | 3.28 µM | – | – | – | – | – | – | – | –
24 | NNC(=O)c1ccccc1NC(=O)/C(=C/c1ccccc1)NC(=O)c1ccccc1 | > 100 | > 100 | > 100 | > 100 µM | > 100 µM | > 100 µM | > 100 µM | > 100 | > 100 µM | > 100 µM | > 100 µM | – | – | – | – | – | – | – | –
25 | COC(=O)c1c(O)ccc2c1c1c(n2C)C(=O)c2ccccc2C1=O | 21 | > 100 | > 100 | > 100 µM | 42.2 µM | 49.3 µM | > 100 µM | > 100 | 43.6 µM | 50.9 µM | > 100 µM | – | – | – | – | – | – | – | –
26 | COC1C(O)=C2C(=O)OC(C)(O)/C=C/C=C\C=C/C=C/C(c3ccccc3)NC(=O)/C=C/C=C/C=C/C=C/C2(C)C1O (stereo not drawn) | 0.00909 | 0.142 | 0.0526 | 0.0149 µM and 0.131 µM | 0.192 µM and 0.246 µM | 0.146 µM and 0.048 µM | 0.122 µM and 0.237 µM | 0.16 | 0.156 µM and 0.127 µM | 0.239 µM and 0.112 µM | 0.0846 µM and 0.175 µM | – | – | – | 0.0115 | – | 0.0624 | 0.0133 | 0.0252
27 | CC(NC(=O)C(NC(=O)OC(C)(C)C)C(C)C)C(=O)NCC(=O)O (stereo not drawn) (Boc-Val-Ala-Gly-OH; configuration not given here) | > 100 | > 100 | > 100 | > 100 µM | > 100 µM | > 100 µM | > 100 µM | > 100 | > 100 µM | > 100 µM | > 100 µM | – | – | – | – | – | – | – | –
28 | COc1ccc(-c2cn3c(n2)sc2cc(C)ccc23)cc1 | 20.8 | 63.2 | > 100 | > 100 µM | 67.5 µM | 69.6 µM | 39.7 µM | > 100 | 78.7 µM | > 100 µM | > 100 µM | – | – | – | – | – | – | – | –
29 | CC(C)n1c(=O)c2nn3c(=O)n(C(C)C)c(=O)c3nn2c1=O | > 100 | > 100 | > 100 | > 100 µM | > 100 µM | > 100 µM | > 100 µM | > 100 | > 100 µM | > 100 µM | – | – | – | – | – | – | – | – | –
